Earlier results as cited in patent publication US12383593B2, “Organic pain relief and hair growth composition” (The Tao Talit Corporation, priority 2021, dated 2025).
Values belong to the molecule of their own block, whether it stands above or below them.

Assays:
orofacial nociception = conditions: in comparison with S. lavandulifolia essential oil
[1] = system: MAPKs and the NF-κB pathway; conditions: mouse peritoneal macrophages
[2] = system: capsaicin irritancy, sprains, heat hypersensitivity and headaches

SMILES: CC1=CCC2CC1C2(C)C (stereo not drawn) [Alpha-pinene, α-pinene]
- anti-inflammatory activity [1]: anti-inflammatory activity through the suppression of mitogen-activated protein kinases (MAPKs) and the nuclear factor-kappa B (NF-κB) pathway

SMILES: C=C(C)[C@H]1CC=C(C)CC1 [limonene, Limonene]
- action on a lymphoma cell line (lymphoma cell line; lymphoma cell line): anti-proliferative action
- normal lymphocyte viability (lymphoma cell line; normal lymphocytes): without modifying normal lymphocyte viability

SMILES: CC1CCC(C(C)C)C(O)C1 (stereo not drawn) [menthol, Menthol]
- cold allodynia and hyperalgesia ([2]; high concentrations, topical use or intraplantar injection): generated cold allodynia and hyperalgesia
- analgesic effect of topically applied menthol ([2]; low to moderate concentrations, topical): inhibit capsaicin irritancy, sprains, heat hypersensitivity and headaches

The next lines start with results.

- solubility in ethanol (ethanol): soluble
- solubility in water and glycerin (water and glycerin): poorly soluble
SMILES: CC(C)=CCCC(C)(O)C1CC=C(C)CC1 (stereo not drawn) [(−)-α-bisabolol, 6-methyl-2-(4-methylcyclohex-3-en-1-yl)-hept-5-en-2-ol]
- antinociceptive effect in the pain models (orofacial nociception): stronger effect

- solubility in organic solvents: very soluble
- solubility in water: nearly insoluble
SMILES: C=C1C2CCC(C2)C1(C)C (stereo not drawn) [Camphene]

- solubility in organic solvents: miscible
- solubility in water: insoluble
SMILES: Cc1ccc(C(C)C)cc1 [p-Cymene]
